The values that follow come from ChEMBL document CHEMBL2203087, “Analogue-based design, synthesis and docking of non-steroidal anti-inflammatory agents. Part 2: methyl sulfanyl/methyl sulfonyl substituted 2,3-diaryl-2,3-dihydro-1H-quinazolin-4-ones” (Bioorg Med Chem, 2012).

Test [1] has as its system Rattus norvegicus. Briefly: Antiinflammatory activity in rat assessed as inhibition of carrageenan-induced paw edema at 50 mg/kg, po measured at 360 mins after carrageenan challenge by plethysmographic analysis. The format is functional. The note with it: 6 h.
Test [2] relates to Rattus norvegicus. Briefly: Antiinflammatory activity in rat assessed as inhibition of carrageenan-induced paw edema at 50 mg/kg, po measured at 270 mins after carrageenan challenge by plethysmographic analysis. It counts as functional. The conditions noted are these: 4.5 h.
In test [3] the test system is Rattus norvegicus. The experiment in a line: Antiinflammatory activity in rat assessed as inhibition of carrageenan-induced paw edema at 50 mg/kg, po measured at 180 mins after carrageenan challenge by plethysmographic analysis. It counts as functional. The note with it: 3 h. (The carrageenan paw model is a standard test of acute inflammation.)
In test [4] the target is T1, Prostaglandin G/H synthase 1 (Ovis aries) (UniProt P05979).
T1 sequence (whole entry): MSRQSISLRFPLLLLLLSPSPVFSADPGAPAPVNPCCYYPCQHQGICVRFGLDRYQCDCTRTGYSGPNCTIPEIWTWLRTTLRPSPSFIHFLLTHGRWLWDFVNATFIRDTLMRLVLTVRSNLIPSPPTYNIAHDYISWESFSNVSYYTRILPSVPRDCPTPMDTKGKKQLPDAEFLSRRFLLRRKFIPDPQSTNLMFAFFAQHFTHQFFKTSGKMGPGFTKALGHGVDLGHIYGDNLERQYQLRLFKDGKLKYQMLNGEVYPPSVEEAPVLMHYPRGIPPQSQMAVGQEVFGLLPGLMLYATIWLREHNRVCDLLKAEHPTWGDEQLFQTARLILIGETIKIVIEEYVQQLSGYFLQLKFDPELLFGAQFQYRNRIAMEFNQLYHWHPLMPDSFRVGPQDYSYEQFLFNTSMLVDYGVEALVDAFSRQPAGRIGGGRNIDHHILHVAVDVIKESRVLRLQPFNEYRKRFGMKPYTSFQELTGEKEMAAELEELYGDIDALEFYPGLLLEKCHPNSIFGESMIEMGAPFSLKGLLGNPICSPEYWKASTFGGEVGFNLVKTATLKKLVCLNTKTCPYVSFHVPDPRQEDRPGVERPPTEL
Briefly: Inhibition of ovine COX1 peroxidase activity assessed as TMPD oxidation at 20 uM by colorimetric analysis.

Test [5] concerns Rattus norvegicus. Briefly: Antiinflammatory activity in rat assessed as inhibition of carrageenan-induced paw edema at 50 mg/kg, po measured at 90 mins after carrageenan challenge by plethysmographic analysis. The format is functional. The conditions noted are these: 1.5 h.
For test [6], the species on record is Ovis aries. The experiment in a line: Selectivity ratio of ovine COX1 to ovine COX2 at 20 uM.

Each structure is given as a SMILES string. Calls of active or inactive are those of the source. The calls are words filed in the database; no cut-off is given here.

Usually inhibition in vivo stands for the change of the read-out against control, counted positive when it falls. As usually defined, the inhibition is the change of the read-out against control, counted positive when it falls. As for `CS(=O)(=O)c1ccc(C2Nc3ccccc3C(=O)N2c2ccccc2F)cc1` (configuration not stated), the inhibition in vivo at 50 mg/kg in test [1] stood at 44%; in test [2], 42%; in test [3] it was 39%; in test [5], 36%. Besides, the inhibition in test [4] is 15%. Also, in test [6], the Selectivity ratio amounted to 0.278.

Turning to `COc1ccc(N2C(=O)c3ccccc3NC2c2ccc(SC)cc2)cc1` (configuration not stated), the inhibition in vivo at 50 mg/kg in test [1] came to 40%; in test [2] it was 38%; in test [3], 35%; in test [5], 33%.

Turning to `CS(=O)(=O)c1ccc(C2Nc3ccccc3C(=O)N2c2ccc(F)cc2)cc1` (configuration not stated), the inhibition in vivo at 50 mg/kg in test [1] worked out at 48%; in test [2] it was 45%; in test [3], 43%; in test [5] it was 38%. In addition, the inhibition result in test [4] is “inactive”. Further, the Selectivity ratio in test [6] was above 0.001.

For `CSc1ccc(C2Nc3ccccc3C(=O)N2c2ccccc2F)cc1` (configuration not stated), the inhibition in vivo at 50 mg/kg in test [1] turned out to be 41%; in test [2], 39%; in test [3], 37%; in test [5] it was 33%.

For `Cc1ccc(N2C(=O)c3ccccc3NC2c2ccc(S(C)(=O)=O)cc2)cc1` (configuration not stated), the inhibition in vivo at 50 mg/kg in test [1] was 40%; in test [2], 39%; in test [3], 35%; in test [5] it was 34%. Further, the inhibition entry in test [4] is “inactive”. The Selectivity ratio in test [6] was above 0.01.

Take `CS(=O)(=O)c1ccc(C2Nc3ccccc3C(=O)N2c2ccc(Cl)cc2)cc1` (configuration not stated): the inhibition in vivo at 50 mg/kg in test [1] stood at 51%; in test [2] it was 46%; in test [3], 42%; in test [5], 37%. Further, the inhibition result in test [4] is “inactive”. Also, the Selectivity ratio in test [6] is above 0.001.

Consider `CSc1ccc(C2Nc3ccccc3C(=O)N2c2ccccc2)cc1` (configuration not stated), for which the inhibition in vivo at 50 mg/kg in test [1] was 39%; in test [2], 37%; in test [3], 34%; in test [5] it was 30%.

Turning to `COc1ccc(N2C(=O)c3ccccc3NC2c2ccc(S(C)(=O)=O)cc2)cc1` (configuration not stated), the inhibition in vivo at 50 mg/kg in test [1] was 49%; in test [2], 47%; in test [3], 43%; in test [5], 39%. In addition, the inhibition in test [4] was 41%. In test [6], the Selectivity ratio was 0.577.

In the case of `CSc1ccc(C2Nc3ccccc3C(=O)N2c2ccc(C)cc2)cc1` (configuration not stated), the inhibition in vivo at 50 mg/kg in test [1] came out at 39%; in test [2] it was 38%; in test [3], 34%; in test [5], 30%.

Turning to `CSc1ccc(C2Nc3ccccc3C(=O)N2c2ccc(Cl)cc2)cc1` (configuration not stated), the inhibition in vivo at 50 mg/kg in test [1] was found to be 47%; in test [2] it was 46%; in test [3] it was 41%; in test [5], 38%. Also, in test [4], the inhibition stood at 5%. Moreover, in test [6], the Selectivity ratio came out at 0.055.

For the compound `CSc1ccc(C2Nc3ccccc3C(=O)N2c2ccc(F)cc2)cc1` (configuration not stated), the inhibition in vivo at 50 mg/kg was determined as 44% in test [1], 42% in test [2], 39% in test [3] and 32% in test [5].

As for `CS(=O)(=O)c1ccc(C2Nc3ccccc3C(=O)N2c2ccccc2)cc1` (configuration not stated), the inhibition in vivo at 50 mg/kg in test [1] came out at 40%; in test [2], 38%; in test [3] it was 35%; in test [5], 31%. Further, the inhibition in test [4] was 49%. Further, the Selectivity ratio in test [6] amounted to 0.742.
